Laboratory results reported in the NIST ThermoML archive (doi:10.1007/s10765-010-0737-5).

Assay: xn = mol fraction of the nth substance listed
Details: Liquid; for viscosity: 101 kPa, Capillary tube (Ostwald / Ubbelohde) method; for mass density: 101.3 kPa

CCC(C)Cl (configuration not stated) [2-chlorobutane] + CC(C)OC(C)C
Details	mass density [kg/m3]	viscosity [mPa·s]
283.15 K, x1 = 0.0519	740.159	0.3683
283.15 K, x1 = 0.0988	745.897	0.3716
283.15 K, x1 = 0.2006	758.792	0.3796
283.15 K, x1 = 0.3211	774.756	0.3899
283.15 K, x1 = 0.4201	788.575	0.3991
283.15 K, x1 = 0.532	804.971	0.4101
283.15 K, x1 = 0.6244	819.223	0.4199
283.15 K, x1 = 0.726	835.602	0.431
283.15 K, x1 = 0.8163	850.907	0.4413
283.15 K, x1 = 0.8817	862.411	0.4489
283.15 K, x1 = 0.9634	877.39	0.4587
283.15 K, x1 = 1	884.34	0.4631
288.15 K, x1 = 0.0519	734.981	0.3519
288.15 K, x1 = 0.0988	740.712	0.3549
288.15 K, x1 = 0.2006	753.569	0.3621
288.15 K, x1 = 0.3211	769.483	0.3713
288.15 K, x1 = 0.4201	783.251	0.3795
288.15 K, x1 = 0.532	799.602	0.3894
288.15 K, x1 = 0.6244	813.814	0.398
288.15 K, x1 = 0.726	830.144	0.408
288.15 K, x1 = 0.8163	845.414	0.4172
288.15 K, x1 = 0.8817	856.901	0.424
288.15 K, x1 = 0.9634	871.819	0.4326
288.15 K, x1 = 1	878.756	0.4365
293.15 K, x1 = 0.0519	729.792	0.3371
293.15 K, x1 = 0.0988	735.485	0.34
293.15 K, x1 = 0.2006	748.303	0.3468
293.15 K, x1 = 0.3211	764.161	0.3555
293.15 K, x1 = 0.4201	777.889	0.3632
293.15 K, x1 = 0.532	–	0.3725
293.15 K, x1 = 0.6244	808.369	0.3806
293.15 K, x1 = 0.726	824.657	0.39
293.15 K, x1 = 0.8163	839.877	0.3987
293.15 K, x1 = 0.8817	851.332	0.4051
293.15 K, x1 = 0.9634	866.214	0.4131
293.15 K, x1 = 1	873.13	0.4167
298.15 K, x1 = 0.0519	724.535	0.321
298.15 K, x1 = 0.0988	730.22	0.3239
298.15 K, x1 = 0.2006	742.995	0.3306
298.15 K, x1 = 0.3211	758.802	0.3392
298.15 K, x1 = 0.4201	772.485	0.3467
298.15 K, x1 = 0.532	788.75	0.3559
298.15 K, x1 = 0.6244	802.882	0.3639
298.15 K, x1 = 0.726	819.123	0.3731
298.15 K, x1 = 0.8163	834.307	0.3817
298.15 K, x1 = 0.8817	845.724	0.3879
298.15 K, x1 = 0.9634	860.57	0.3959
298.15 K, x1 = 1	867.474	0.3993
303.15 K, x1 = 0.0519	719.276	0.3033
303.15 K, x1 = 0.0988	724.919	0.3061
303.15 K, x1 = 0.2006	737.649	0.3127
303.15 K, x1 = 0.3211	753.411	0.3212
303.15 K, x1 = 0.4201	767.06	0.3286
303.15 K, x1 = 0.532	783.263	0.3375
303.15 K, x1 = 0.6244	797.355	0.3454
303.15 K, x1 = 0.726	813.555	0.3545
303.15 K, x1 = 0.8163	828.698	0.3628
303.15 K, x1 = 0.8817	840.084	0.369
303.15 K, x1 = 0.9634	854.895	0.3767
303.15 K, x1 = 1	861.779	0.38
308.15 K, x1 = 0.0519	713.939	0.2887
308.15 K, x1 = 0.0988	719.569	0.2915
308.15 K, x1 = 0.2006	732.261	0.2977
308.15 K, x1 = 0.3211	747.973	0.3058
308.15 K, x1 = 0.4201	761.571	0.3127
308.15 K, x1 = 0.532	777.737	0.3212
308.15 K, x1 = 0.6244	791.784	0.3287
308.15 K, x1 = 0.726	807.944	0.3374
308.15 K, x1 = 0.8163	823.046	0.3453
308.15 K, x1 = 0.8817	834.402	0.3511
308.15 K, x1 = 0.9634	849.179	0.3584
308.15 K, x1 = 1	856.044	0.3615
313.15 K, x1 = 0.0519	708.573	0.2752
313.15 K, x1 = 0.0988	714.181	0.2779
313.15 K, x1 = 0.2006	726.833	0.2838
313.15 K, x1 = 0.3211	742.484	0.2914
313.15 K, x1 = 0.4201	756.049	0.2981
313.15 K, x1 = 0.532	772.166	0.3062
313.15 K, x1 = 0.6244	786.18	0.3133
313.15 K, x1 = 0.726	802.287	0.3215
313.15 K, x1 = 0.8163	817.349	0.329
313.15 K, x1 = 0.8817	828.683	0.3345
313.15 K, x1 = 0.9634	843.42	0.3413
313.15 K, x1 = 1	850.266	0.3443
